# Source: ChEMBL document CHEMBL3507680, “University of Dundee, Gates Library screen for HepG2 cell viability”
# Test: Human HepG2 cell viability assay in 384 well format
# Assay type: toxicity, cell-based
# Set-up: dose 125 nL, time 70.5 hour; cytotoxicity at 70.5 h: concentration not given beside the values
# Conditions: HepG2 cells, read-out: Inhibition
row,Structure (SMILES),cytotoxicity at 70.5 h [%]
1,CCOC(=O)[C@H]1[C@@H](O)C(=O)N(C)C12CCN(C(=O)OCC)CC2,0.864
2,Cc1cc(=O)[nH]c(=O)n1Cc1ccccc1,-7.18
3,CN(C(=O)c1ccc(Cl)cn1)c1ccccc1S(C)(=O)=O,-5.72
4,Cc1nc(CN2CCOCC3(CCCN(c4cnccn4)C3)C2)cs1 (stereo unspecified),-2.38
5,COc1ccc2oc(C(C)NC(=O)NCc3noc(C)n3)c(C)c2c1 (stereo unspecified),-12
6,CCCSCC(=O)NS(=O)(=O)c1ccc2c(c1)OCCO2,2.12
7,COCC(=O)N1C[C@H]2CC[C@@]3(N=C(c4ccccc4)NC3=O)[C@H]2C1,-3.3
8,COc1c(CNCc2ccnc(N(C)C)c2)c(C(C)C)nn1C,0.688
9,O=C(O)c1cc2c(nc1-c1ccoc1)CCN(Cc1ccco1)CC2,-14.2
10,COc1ccccc1CNC(=O)C(C)N1CC(n2nc(C)cc2C)C1 (stereo unspecified),-1.72
11,O[C@@H]1C[C@@H](c2nc(-c3ccc(OC(F)(F)F)cc3)no2)N(CC2CC2)C1,-4.09
12,CC(=O)NCC(=O)N1Cc2nccn2CC(COc2cccnc2)C1 (stereo unspecified),-10.5
13,Cc1n[nH]c(C2CN(CC(=O)NCCc3ccc(F)cc3)CCO2)n1 (stereo unspecified),-114
14,CS(=O)(=O)Cc1nc(CCc2ccccc2)nn1-c1ccccn1,-10.4
15,Cc1ccc(N2CCC3(CN(CCO)CCC3(F)F)C2)nn1 (stereo unspecified),-6.24
16,O=C(NCc1cccnc1)N[C@H]1CC[C@@]2(CCC(=O)N2CC2CC2)CC1,8.65
17,COc1ncccc1C(=O)NCCn1cnc(C)cc1=O,-2.32
18,Cc1cc(C)nc(N2CCCC2c2[nH]ncc2C(=O)N(C)C)n1 (stereo unspecified),-3.67
19,CC(C)c1cccc(CSc2nnc(CN3CCCC3=O)o2)n1,-8
20,Cn1cc(CN2CCCC(O)C2)c(-c2ccccc2F)n1 (stereo unspecified),-6.51
21,O=C(NCc1cccs1)[C@H]1CC[C@@H]2[C@@H](CCN2C2CCC2)O1,-3.48
22,CCCC1CN(CC(C)C)C(=O)c2cccnc2O1 (stereo unspecified),44
23,Cc1cc(NC(=O)c2ccc(CN3CC[C@H](O)C3)cc2)ccc1F,-13.5

row,Structure (SMILES),cytotoxicity at 70.5 h [%]
1,Cc1nnc(N2CC[C@H]3C[C@H](C(=O)N(C)C)O[C@@H]3C2)s1,-7.89
2,CCC[C@@H]1CN(Cc2ccc(N(C)C)nc2)C[C@H]1N(C)C,-9.01
3,COc1cc(CNCc2c(C)nn(C)c2N(C)C)ccn1,-1.56
4,CCc1nc(C2CCCN2C(=O)c2cnc3n[nH]c(C)c3c2)no1 (stereo unspecified),-12.5
5,NC(=O)C1CCN(C(=O)NCCOc2ccc3c(c2)CCC3)CC1,-6.38
6,CCN1CCCC(CNC(=O)C2(c3cc(C)cc(C)c3)CCC2)C1 (stereo unspecified),28.2
7,O=C(Cc1cccc(F)c1)NCCNCc1cccc(O)c1,0.873
8,CCCc1ccc(C(C)Nc2ncnc3c2CCNC3)cc1 (stereo unspecified),-2.09
9,Cc1ccc(-c2noc(C(C)NS(C)(=O)=O)n2)cc1 (stereo unspecified),21.2
10,O=C(NCc1cn2c(n1)CN(Cc1cccc(F)c1)CC2)C1CCC1,-3.08
11,C[C@@H]1CN(C2CCN(Cc3nn(C)c4cccc(Cl)c34)CC2)C[C@H](C)O1,25.7
12,CC(C)(C)OC(=O)N[C@H]1CCN(c2cncc(Br)c2)C1,23.7
13,N#Cc1cc(C(F)(F)F)ccc1NCC1CCS(=O)(=O)CC1,16.6
14,COc1ccc(OCc2noc(CN(C)C3CCS(=O)(=O)C3)n2)cc1 (stereo unspecified),-5.76
15,COCCN1CCC(CNC(=O)c2cc(C)cc(C)c2)C1 (stereo unspecified),-11.9
16,CC(C)(C)c1coc([C@@H]2COCCN2Cc2c[nH]cn2)n1,2.66
17,CC(C)C1=NOC2(CCN(C(=O)C3CCCC3)CC2)C1,-11.9
18,CC1CC(=O)c2cc(C(=O)N3CCN(C)CC3)c(=O)[nH]c2C1 (stereo unspecified),-5.53
19,COc1ccc(CC(=O)N2CC[C@@H](OC)[C@@H]2Cc2cccnc2)cc1,-4.94
20,CN(c1ncc(S(N)(=O)=O)s1)C1CCc2ccccc21 (stereo unspecified),-1.27
21,Cc1cc(N2CCOC(c3ccc(N(C)C)cn3)C2)nc(N)n1 (stereo unspecified),-6.31
22,CC(SCCNS(=O)(=O)c1cnn(C)c1)c1cccc(F)c1 (stereo unspecified),-5.51
23,Cn1cnc2ccc(NC(=O)CC3CCN(C4CCCCC4)CC3)cc21,-4.48

row,Structure (SMILES),cytotoxicity at 70.5 h [%]
1,Cc1cc(C)cc(C2(C(=O)NCC3CCN(CC(F)(F)F)C3)CC2)c1 (stereo unspecified),-2.93
2,COc1cc(CN2CCCC(Nc3cccc(F)c3)C2)cc(OC)c1O (stereo unspecified),-5.97
3,Cc1cc(NC(=O)NCCc2ccccc2)n(C)n1,-7.09
4,O=C(O)C(c1ccc2[nH]ccc2c1)N1CCOCC1 (stereo unspecified),9.07
5,c1csc(-c2noc(CN3CCc4c(ncn4C4CC4)C3)n2)c1,-14.5
6,CCc1cnc(C)nc1N1CCN(C(N)=O)CC1,-12.6
7,CC(C)Cc1noc(CN2CCCC2c2noc(C3CC3)n2)n1 (stereo unspecified),-10.4
8,CC(=O)N[C@H]1CCO[C@@H](c2cccc(NC(=O)C(C)(C)C)c2)C1,-7.68
9,CCCNC(=O)CCC(=O)N1CCC(c2noc3cc(F)ccc23)CC1,-8.21
10,CCc1nc(CCn2cc(-c3nccn3C)nn2)no1,-9.68
11,COc1ccccc1CC(=O)NC(C)c1nc2cccnc2n1C(C)C (stereo unspecified),-1.11
12,NC(=O)C(NC(=O)c1cc(Cl)c[nH]1)c1ccccc1 (stereo unspecified),-8.05
13,Cc1cccc(CO[C@@H]2CC[C@H]3[C@H]2OCCN3Cc2nccs2)n1,-0.937
14,COc1ccc2[nH]c(=O)c(CN(C)CCN3CCCC3)cc2c1,57.1
15,Cc1ncsc1C(=O)OCC1CCN(c2ccccc2)C1 (stereo unspecified),-97.5
16,CC(O)CN1CCN(C(=O)c2ccc(Cn3cccc3)cc2)CC1 (stereo unspecified),-2.78
17,CC(NS(=O)(=O)CCCC#N)c1cccc(-n2cccn2)c1 (stereo unspecified),-10.5
18,COc1ccc(CNCc2ccnc(N3CCOCC3)c2)c(OC)c1,-10.2
19,Cc1cnn(CC2CCCN2C(=O)c2ccc3nnc(C)n3c2)c1 (stereo unspecified),-1.07
20,CCc1nc(NS(=O)(=O)c2cc(C)cc(F)c2)no1,-0.337
21,COCc1nc(C)cc(Nc2ccc3c(c2)CC(=O)N3)n1,-7.41
22,COc1ccc(CN(C)C(=O)Cc2c(C)nn(C)c2C)cc1F,2.24
23,CC(C)OC[C@H]1CCC[C@]12CN(S(=O)(=O)c1cn(C)cn1)CCO2,-4.1

row,Structure (SMILES),cytotoxicity at 70.5 h [%]
1,O=C(c1c(F)cccc1F)N1CCOCC1,18.9
2,CC(c1nc(C(C)(C)C)no1)N1CCC(N2CCCC2)CC1 (stereo unspecified),4.89
3,Cc1cnn(C2CN(CCOc3cccc(C#N)c3)C2)c1,-5.43
4,COc1ccc(OC)c(C2CCN(Cc3nc(C)n4ccccc34)C2)c1 (stereo unspecified),-12.6
5,CN(C)C(=O)N1CCN(CCn2nc3ccccn3c2=O)CC1,-2.81
6,CN(C)C(=O)CS(=O)(=O)Cc1cc(Cl)c2c(c1)OCO2,-2.34
7,CCCOCCn1ncc(N2CCc3ccccc3C2)cc1=O,-1.9
8,COc1ccc(-c2n[nH]cc2CN(C)CCCN2CCOCC2)c(F)c1,-3.86
9,Cc1cccc(COC[C@@H]2CC[C@H]3[C@H](CCN3C(=O)CC3CC3)O2)n1,-6.33
10,COc1ccc(C2CC(=O)NCc3nc4ccccn4c32)cn1 (stereo unspecified),-1.02
11,Nc1nc(Nc2ccccc2)cc(N2CCNCC2)n1,-3.76
12,Cc1cc(C)cc(OCCC(=O)N2CCCC(n3cncn3)C2)c1 (stereo unspecified),-15.5
13,CC(=O)N1CCCC1c1nc(CN(C)C(=O)C(C)C)cc(N(C)C)n1 (stereo unspecified),-4.11
14,Cc1cc(C)n(C2CCCN(C(=O)CCc3nccs3)C2)n1 (stereo unspecified),28.2
15,Cc1ccc(C(NC(=O)Cc2nc3ncccn3n2)C2CC2)cc1 (stereo unspecified),-11.9
16,Cc1nc(CN2C[C@@H]3CN(C(=O)c4cnccn4)C[C@@H]3C2=O)cs1,-10.8
17,Cc1nc(C2CCCN(C(=O)COCc3ccccc3Cl)C2)no1 (stereo unspecified),-7.76
18,O=C(c1cscn1)N1C[C@@H](Oc2cccnc2)[C@H]2OCCC[C@H]21,26.4
19,CCOC(=O)NCCC(=O)NC(C)(C)c1ccc2c(c1)OCCO2,-6.26
20,Cn1c(CC2CCS(=O)(=O)C2)nnc1SCCOc1cccc(Cl)c1 (stereo unspecified),-11.2
21,CCOC(=O)[C@H]1[C@@H](O)C(=O)N(C)C12CCN(C(=O)CC(C)(C)C)CC2,-6.45
22,CCc1[nH]c2c(CNC(=O)[C@@H]3CCCN3C)cc(C)cc2c1C,6.71
23,Cc1nc(C2CCCN2Cc2nnc(C3CC3)o2)no1 (stereo unspecified),0.406

row,Structure (SMILES),cytotoxicity at 70.5 h [%]
1,CC(NCc1ccnc(OC2CCC2)c1)c1cnn(C)c1 (stereo unspecified),-15.1
2,CCOc1ccc(CNCCCn2ccnc2)cc1Cl,0.65
3,Fc1ccc(CN2CCC(c3n[nH]c4ncccc34)CC2)cc1F,22.2
4,O=C1[C@H]2CC[C@H](CN(C3CSCCSC3)C2)N1Cc1cscn1,-7.49
5,COCCC(=O)N1CCC2(CCN(Cc3cccc(F)c3)C2)C1 (stereo unspecified),24.8
6,CC1(C)CN(C(=O)CCc2nc(-c3ccncc3)no2)CCO1,-12
7,NC(=O)c1cn[nH]c1C1CCCN1C(=O)COc1ccccc1 (stereo unspecified),-3.18
8,CCN1CC2(CC1=O)CN(C(=O)C(C)C)CCN(S(C)(=O)=O)C2 (stereo unspecified),19.5
9,O=C(NCc1ccon1)Nc1cc(F)ccc1N1CCCCC1,0.987
10,CC(C)OCc1ncn2c1CN(Cc1cnn(C)c1)CCC2,0.691
11,CSCC(=O)N1CCCC1c1noc(C2CC2)n1 (stereo unspecified),-4.73
12,Cn1ncc2c(=O)[nH]c(CN3CCCC3c3cccs3)nc21 (stereo unspecified),-10.3
13,CNC(=O)[C@@H]1[C@H]2CN(Cc3ccccn3)CCN2C[C@H]1c1ccccc1,4.19
14,O=C(NC[C@H]1OC[C@@H]2CCN(Cc3ccco3)C[C@@H]21)c1ccsc1,-5.61
15,COc1ccc(S(=O)(=O)N2CCn3cnc(COCC4CC4)c3C2)cc1,10.3
16,O=C(C1CCOC1)N1CCc2ncnc(-c3cccnc3)c2CC1 (stereo unspecified),15.9
17,Cc1cc(CN2CCN(C(=O)NCc3ccc(C)s3)CC2)no1,-27.6
18,CCC(NC(=O)c1c(C(=O)O)cnn1C)c1ccc(C)cc1C (stereo unspecified),-3.68
19,Cn1cc(C2(C)CN(Cc3ccc(Cl)c(F)c3)CCO2)cn1 (stereo unspecified),-7.47
